# From PMC5979531, “Structural Requirements of Alkylglyceryl-L-Ascorbic Acid Derivatives for Melanogenesis Inhibitory Activity” (International Journal of Molecular Sciences, 2018)
# Key:
# B16 melanoma 4A5 cells = experiment: Theophylline-stimulated melanogenesis inhibition (melanin content); assay type: cell-based, murine; settings: Mus musculus, 72 h
# Procedure, shortened: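 Murine B16 4A5 cells were cultured 24 h in DMEM, then exposed to test compound plus 1 mM theophylline for 72 h. Melanin content (optical density) and viability were measured. Inhibition % was computed from vehicle versus treated OD corrected for viability (%), and IC50 was determined graphically.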
# [1] = Cell viability of B16 melanoma 4A5 cells; assay type: cell-based, murine; settings: mouse, B16 4A5 cells
# Procedure, shortened: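 Murine B16 4A5 melanoma cells in DMEM, cultured 24 h, then exposed 72 h to compound together with 1 mM theophylline. Viability measured afterwards; IC50 determined graphically.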
# [2] = Stability in aqueous solution at elevated temperature (HPLC residual ratio); assay type: physicochemical; settings: 20 mg/mL at 125 °C in the dark, after 3 h
# Procedure: To determine stability, the samples were stored at 125 °C, and the residual ratio was calculated by measuring the remaining compound by HPLC. HPLC mobile phase conditions were as follows: AsA was described previously, 6 and 20 were 40% methanol containing 0.1% formic acid at flow rate of 0.2 mL/min [52, 53].
# tyrosinase from mushroom = experiment: Mushroom tyrosinase activity; assay type: biochemical
# Procedure: Tyrosinase activities using L-tyrosine or L-DOPA as a substrate were determined according to the protocols described previously. Briefly, samples, L-tyrosine (2.5 mM, or L-DOPA, 3.0 mM), mushroom tyrosinase (46 units/mL), and phosphate buffer were mixed in a 96-well plate and incubated at 25 °C. (L-tyrosine; 30 min, L-DOPA; 5 min). The absorbance was then measured at 492 nm.
# mammalian tyrosinase = molecular target: T1, mammalian tyrosinase (Mus musculus, UniProt P11344); experiment: Mammalian tyrosinase activity (B16 cell lysate, L-DOPA); assay type: biochemical, murine; settings: L-DOPA as substrate
# T1 construct: the cells were solubilized using 0.1% Triton X-100; endogenous in cells; host or cells: B16 melanoma cells (lysate, after 72 h of 1 mM theophylline)
# T1 sequence (P11344 19-533): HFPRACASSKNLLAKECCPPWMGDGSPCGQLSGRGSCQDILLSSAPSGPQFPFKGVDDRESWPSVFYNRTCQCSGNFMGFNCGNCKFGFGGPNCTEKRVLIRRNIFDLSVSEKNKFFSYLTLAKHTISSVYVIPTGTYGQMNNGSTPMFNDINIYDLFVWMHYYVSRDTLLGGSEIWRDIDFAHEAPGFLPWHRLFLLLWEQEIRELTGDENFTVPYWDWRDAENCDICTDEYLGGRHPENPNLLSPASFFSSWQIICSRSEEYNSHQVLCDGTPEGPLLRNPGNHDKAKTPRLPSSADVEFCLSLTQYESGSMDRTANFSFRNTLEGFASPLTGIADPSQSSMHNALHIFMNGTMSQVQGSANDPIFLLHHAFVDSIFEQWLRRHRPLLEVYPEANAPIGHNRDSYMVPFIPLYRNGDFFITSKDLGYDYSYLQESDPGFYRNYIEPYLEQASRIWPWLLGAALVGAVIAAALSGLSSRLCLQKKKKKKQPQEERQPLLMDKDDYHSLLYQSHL
# Procedure: Tyrosinase activity using L-DOPA as a substrate was determined according to protocols described previously. Briefly, B16 cells were seeded into 6-well plates in DMEM. After preculture with theophylline (1 mM) for 72 h, the cells were solubilized using 0.1% Triton X-100. Fifty microliters of each lysate and sample was then mixed with 100 µL 2 mM L-DOPA. After the mixtures were incubated for 30 min at 37 °C, the absorbance of each solution at 492 nm was measured.
# tyrosinase mRNA = experiment: Expression of tyrosinase mRNA (qRT-PCR); assay type: cell-based, murine; settings: 30 µM, B16 4A5 cells, theophylline 1 mM, 72 h
# Procedure: (§1) The expression of tyrosinase, TRP-1, and TRP-2 mRNA was assessed according to previously reported methods. Briefly, murine B16 melanoma 4A5 cells were seeded into 96-well plates in DMEM. After 24 h of culture, a test compound and theophylline (1 mM) were added and incubated for 72 h. Then, the amount of each mRNA was quantified by quantitative reverse transcription PCR.
# TRP-1 mRNA = experiment: Expression of TRP-1 mRNA (qRT-PCR); assay type: cell-based, murine; settings: 30 µM, B16 4A5 cells, theophylline 1 mM, 72 h
# Procedure: as §1
# TRP-2 mRNA = experiment: Expression of TRP-2 mRNA (qRT-PCR); assay type: cell-based, murine; settings: B16 4A5 cells, theophylline 1 mM, 72 h
# Procedure: as §1
# tyrosinase protein = experiment: Expression of tyrosinase protein (western blotting); assay type: cell-based, murine; settings: B16 4A5 cells, theophylline 1 mM, 72 h
# Procedure: The expression of tyrosinase protein was assessed according to a previously reported method. Briefly, murine B16 melanoma 4A5 cells were seeded into 6-well plates in DMEM. After 24 h of culture, a test compound and theophylline (1 mM) were added and incubated for 72 h. The expression of tyrosinase protein then was measured by western blotting.
# [3] = system: tyrosinase activity in B16 melanoma 4A5 cells; experiment: Tyrosinase activity in cultured B16 cells; assay type: cell-based, murine; settings: B16 4A5 cells, L-DOPA as substrate
# Procedure: Tyrosinase activity in cultured cells was determined according to protocols described previously with modifications. Briefly, B16 melanoma 4A5 cells (4 × 10^3 cells/100 µL/well) were seeded into 96-well plates in DMEM. After pre-culture with sample and theophylline (1 mM) for 72 h, the cells were solubilized using 0.1% Triton X-100, and then each lysate was mixed with 50 μL 2 mM L-DOPA. After the mixtures were incubated for 1 h at 37 °C, the absorbance of the solution at 492 nm was measured using the microplate reader.
smiles,measurement,setting,value
"CCCCCCOC1=C(OCC(O)CO)[C@@H]([C@@H](O)CO)OC1=O (stereo partly drawn) [compound 6, 3-O-(2,3-dihydroxypropyl)-2-O-hexyl-AsA]",inhibition at 3 µM,"B16 melanoma 4A5 cells; 3 µM, theophylline-stimulated B16 4A5 cells",-1.8 ± 4.9%
same,inhibition at 10 µM,"B16 melanoma 4A5 cells; 10 µM, theophylline-stimulated B16 4A5 cells",5.6 ± 2%
same,inhibition at 30 µM,"B16 melanoma 4A5 cells; 30 µM, theophylline-stimulated B16 4A5 cells",26.2 ± 6%
same,inhibition at 100 µM,"B16 melanoma 4A5 cells; 100 µM, theophylline-stimulated B16 4A5 cells",53.1 ± 3.1%
same,IC50,B16 melanoma 4A5 cells; theophylline (1 mM)-stimulated B16 melanoma 4A5 cells,81.4 µM
same,"viability at 72 h, 3 µM",[1]; 3 µM,102%
same,"viability at 72 h, 10 µM",[1]; 10 µM,96.1%
same,"viability at 72 h, 30 µM",[1]; 30 µM,88.4%
same,"viability at 72 h, 100 µM",[1]; 100 µM,77.1%
same,Residual ratio in aqueous solution,[2],85%
same,Inhibition (%) of mushroom tyrosinase,"tyrosinase from mushroom; Substrate: L-DOPA, 30 µM",−1.5 ± 1.5%
same,Inhibition (%) of mushroom tyrosinase,"tyrosinase from mushroom; Substrate: L-DOPA, 100 µM",−1.0 ± 0.7%
same,Inhibition (%) of mushroom tyrosinase,"tyrosinase from mushroom; Substrate: L-Tyrosine, 30 µM",−1.5 ± 6.7%
same,Inhibition (%) of mushroom tyrosinase,"tyrosinase from mushroom; Substrate: L-Tyrosine, 100 µM",0.9 ± 1.4%
same,activity on mammalian tyrosinase (in words),mammalian tyrosinase,did not show activity
same,Tyrosinase mRNA/β-actin mRNA,tyrosinase mRNA,0.60 ± 0.07
same,TRP-1 mRNA/β-actin mRNA,TRP-1 mRNA,0.48 ± 0.15
same,TRP-2 mRNA/β-actin mRNA,TRP-2 mRNA; 30 µM,0.53 ± 0.18
same,TRP-2 mRNA/β-actin mRNA,TRP-2 mRNA; 100 µM,0.70 ± 0.06
same,expression of tyrosinase protein (in words),tyrosinase protein,suppressed tyrosinase protein expression in a concentration-dependent manner
same,tyrosinase activity in cultured cells (in words),[3],decreased tyrosinase activity in cultured cells
